IC50 data for 25 molecules are collected here from patent US11845760B2, “PRMT5 inhibitors” (AMGEN INC., priority 2020, dated 2023).

Read-outs that look alike come from different tables or passages of the source.

For one test, the system named is HCT116 WT cells. The test is described as follows: HCT116 WT cell line proliferation (CellTiter-Glo cell viability, 6 days). The format is cell-based. Conditions: HCT116 WT (parent) cells, 6 days of treatment, CellTiter-Glo cell viability, read-out: HCT-116 WT IC50. A digest of the protocol: (§1)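 Viability by CellTiter-Glo after 6 days' drug exposure in wild-type HCT116 and its MTAP-null knockout, with DMSO-only control. Dosing used either 1:3 steps (top 1 or 10 μM) or 22 points in 1:2 steps (top 10 or 50 μM). IC50 taken where the fitted curve crosses 50% of control.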

A further test relates to HCT116 MTAP null cells. Nature of the test: HCT116 MTAP null cell line proliferation (CellTiter-Glo cell viability, 6 days). Conditions: HCT116 MTAP null cells, 6 days of treatment, CellTiter-Glo cell viability, read-out: HCT-116 MTAP null IC50. Type of test: cell-based. The gist of the method: as §1

Turning to `CC1OCc2c1c(N)nc1cnc(C(=O)N3C(C)COCC3c3ccc(OC(F)F)nn3)cc21` (mixture of isomers) [Example 316, ((3R)-4-amino-3-methyl-1,3-dihydrofuro[3,4-c][1,7]naphthyridin-8-yl)((3R,5S)-3-(6-(difluoromethoxy)-3-pyridazinyl)-5-methyl-4-morpholinyl)methanone and ((3R)-4-amino-3-methyl-1,3-dihydrofuro[3,4-c][1,7]naphthyridin-8-yl)((3S,5R)-3-(6-(difluoromethoxy)-3-pyridazinyl)-5-methyl-4-morpholinyl)methanone], the half-inhibitory concentration (IC50) worked out at 1130 nM in the test with HCT116 WT cells and 35 nM with HCT116 MTAP null cells.

For `Nc1nc2cnc(C(=O)N3CCOC[C@@H]3c3ccc(C(F)(F)F)s3)cc2c2c1COC2` (single isomer, unassigned) [Example 617], the IC50 in the test with HCT116 WT cells (Homo sapiens, HCT-116, 144 h) is 5730 nM; with HCT116 MTAP null cells (HCT116-MTAP null, 144 h), 228 nM.

For the molecule `C[C@@H]1COC[C@H](c2ccc(C(F)(F)F)nn2)N1C(=O)c1cc2c3c(c(N)nc2cn1)COC3` [Example 555, (4-amino-1,3-dihydrofuro[3,4-c][1,7]naphthyridin-8-yl)((3R,5S)-3-methyl-5-(6-(trifluoromethyl)-3-pyridazinyl)-4-morpholinyl)methanone], the IC50 with HCT116 WT cells (Homo sapiens, HCT-116, 144 h) turned out to be 1230 nM; with HCT116 MTAP null cells (HCT116-MTAP null, 144 h) it was 41 nM.

Take `Nc1nc2cc(Cl)c(C(=O)N3C[C@@H](c4ccc(F)cc4)[C@H](c4cc[nH]n4)C3)cc2c2c1COC2` (single isomer, unassigned) [Example 476]: the half-maximal inhibitory concentration (IC50) in the test on HCT116 WT cells (Homo sapiens, HCT-116, 144 h) worked out at 1560 nM; in the test on HCT116 MTAP null cells (HCT116-MTAP null, 144 h), 68 nM.

For the molecule `Nc1nc2cc(F)c(C(=O)N3CCOCC3c3ccc(C(F)(F)F)cn3)cc2c2c1COC2` (racemic) [Example 351, (4-amino-7-fluoro-1,3-dihydrofuro[3,4-c]quinolin-8-yl)((3R)-3-(5-(trifluoromethyl)-2-pyridinyl)-4-morpholinyl)methanone and (4-amino-7-fluoro-1,3-dihydrofuro[3,4-c]quinolin-8-yl)((3S)-3-(5-(trifluoromethyl)-2-pyridinyl)-4-morpholinyl)methanone], the 50% inhibitory concentration (IC50) was determined as 6000 nM in the test on HCT116 WT cells (Homo sapiens, HCT-116, 144 h) and 129 nM with HCT116 MTAP null cells (HCT116-MTAP null, 144 h).

As to `C[C@H]1OCc2c1c(N)nc1ccc(C(=O)N3C[C@H](c4ccc(Cl)cc4)C[C@H]3C3CC3)cc21` [Example 398, ((3R)-4-amino-3-methyl-1,3-dihydrofuro[3,4-c]quinolin-8-yl)((2S,4S)-4-(4-chlorophenyl)-2-cyclopropyl-1-pyrrolidinyl)methanone], the half-maximal inhibitory concentration (IC50) in the test with HCT116 WT cells (Homo sapiens, HCT-116, 144 h) was 13200 nM; in the test on HCT116 MTAP null cells (HCT116-MTAP null, 144 h), 609 nM.

With `Nc1nc2ccc(C(=O)N3CCOC[C@@H]3c3ccc(OC(F)(F)F)nc3)cc2c2c1COC2` (single isomer, unassigned) [Example 592], the IC50 with HCT116 WT cells (Homo sapiens, HCT-116, 144 h) came out at 8900 nM; in the test on HCT116 MTAP null cells (HCT116-MTAP null, 144 h), 145 nM.

For `C[C@@H]1COC[C@H](c2ccc(C(F)(F)F)cc2)N1C(=O)c1ccc2nc(N)c3c(cnn3C)c2c1` [Example 533, (4-amino-3-methyl-3H-pyrazolo[3,4-c]quinolin-8-yl)((3R,5S)-3-methyl-5-(4-(trifluoromethyl)phenyl)-4-morpholinyl)methanone], the IC50 in the test on HCT116 WT cells (Homo sapiens, HCT-116, 144 h) came out at 2480 nM; in the test with HCT116 MTAP null cells (HCT116-MTAP null, 144 h), 45 nM.

As for `Nc1nc2ccc(C(=O)N3CCOCC3c3ccc(CC(F)(F)F)cc3)cc2c2c1COC2` (racemic) [Example 508, (4-amino-1,3-dihydrofuro[3,4-c]quinolin-8-yl)((3R)-3-(4-(2,2,2-trifluoroethyl)phenyl)-4-morpholinyl)methanone and (4-amino-1,3-dihydrofuro[3,4-c]quinolin-8-yl)((3S)-3-(4-(2,2,2-trifluoroethyl)phenyl)-4-morpholinyl)methanone], the 50% inhibitory concentration (IC50) in the test with HCT116 WT cells (Homo sapiens, HCT-116, 144 h) stood at 6610 nM; in the test on HCT116 MTAP null cells (HCT116-MTAP null, 144 h), 603 nM.

Consider `COc1ccc([C@H]2COC[C@@H](C)N2C(=O)c2cc3c(cc2F)nc(N)c2cnn(C)c23)nn1` [Example 551, (4-amino-7-fluoro-1-methyl-1H-pyrazolo[4,3-c]quinolin-8-yl)((3S,5R)-3-(6-methoxy-3-pyridazinyl)-5-methyl-4-morpholinyl)methanone], for which the IC50 with HCT116 WT cells (Homo sapiens, HCT-116, 144 h) is 150 nM; with HCT116 MTAP null cells (HCT116-MTAP null, 144 h), 6 nM.

In the case of `Nc1nc2cc(Cl)c(C(=O)N3CCOCC3c3ccc(C(F)(F)F)cn3)cc2c2c1COC2` (racemic) [Example 344, (4-amino-7-chloro-1,3-dihydrofuro[3,4-c]quinolin-8-yl)((3R)-3-(5-(trifluoromethyl)-2-pyridinyl)-4-morpholinyl)methanone and (4-amino-7-chloro-1,3-dihydrofuro[3,4-c]quinolin-8-yl)((3S)-3-(5-(trifluoromethyl)-2-pyridinyl)-4-morpholinyl)methanone], the half-inhibitory concentration (IC50) in the test on HCT116 WT cells (Homo sapiens, HCT-116, 144 h) was 1410 nM; in the test on HCT116 MTAP null cells (HCT116-MTAP null, 144 h), 58 nM.

Consider `Nc1nc2cc(Cl)c(C(=O)N3CC(c4ccc(C(F)(F)F)cc4)C3)cc2c2c1COC2` [Example 430, (4-amino-7-chloro-1,3-dihydrofuro[3,4-c]quinolin-8-yl)(3-(4-(trifluoromethyl)phenyl)-1-azetidinyl)methanone], for which the IC50 was 12600 nM with HCT116 WT cells (Homo sapiens, HCT-116, 144 h) and 445 nM in the test on HCT116 MTAP null cells (HCT116-MTAP null, 144 h).

As for `Nc1nc2ccc(C(=O)N3CCOC[C@H]3c3ccc(Cl)cc3)cc2c2c1COC2` (single isomer, unassigned) [Example 580], the 50% inhibitory concentration (IC50) in the test with HCT116 WT cells (Homo sapiens, HCT-116, 144 h) is more than 10000 nM; in the test with HCT116 MTAP null cells (HCT116-MTAP null, 144 h), more than 1000 nM.

As to `Cn1ncc2c(N)nc3cc(F)c(C(=O)N4C[C@@H]5C[C@]5(c5ccc(C(F)(F)F)cc5)C4)cc3c21` (single isomer, unassigned) [Example 620], the 50% inhibitory concentration (IC50) in the test with HCT116 WT cells (Homo sapiens, HCT-116, 144 h) stood at 4230 nM; in the test with HCT116 MTAP null cells (HCT116-MTAP null, 144 h), 634 nM.

`Nc1nc2cnc(C(=O)N3CCOC[C@H]3c3cnc(C(F)(F)F)cn3)cc2c2c1COC2` (single isomer, unassigned) [Example 614]: the IC50 in the test with HCT116 WT cells and in the test with HCT116 MTAP null cells was more than 10000 nM in each case.

As for `Nc1nc2cnc(C(=O)N3CCOC[C@@H]3c3ccc(C(F)(F)F)cc3)cc2c2cnccc12` [Example 501, (5-aminopyrido[4,3-c][1,7]naphthyridin-9-yl)((3S)-3-(4-(trifluoromethyl)phenyl)-4-morpholinyl)methanone], the IC50 worked out at 689 nM in the test on HCT116 WT cells (Homo sapiens, HCT-116, 144 h) and 37 nM in the test with HCT116 MTAP null cells (HCT116-MTAP null, 144 h).

As for `COc1ccc([C@H]2COC[C@@H](C)N2C(=O)c2cc3c4c(c(N)nc3cc2F)COC4)nn1` [Example 540, (4-amino-7-fluoro-1,3-dihydrofuro[3,4-c]quinolin-8-yl)((3S,5R)-3-(6-methoxy-3-pyridazinyl)-5-methyl-4-morpholinyl)methanone], the IC50 worked out at 579 nM with HCT116 WT cells (Homo sapiens, HCT-116, 144 h) and 19 nM with HCT116 MTAP null cells (HCT116-MTAP null, 144 h).

Regarding `Nc1nc2ccc(C(=O)N3CCOC[C@@H]3c3ccc(Cl)cc3)cc2c2c1COC2` (single isomer, unassigned) [Example 581], the IC50 stood at 6570 nM with HCT116 WT cells (Homo sapiens, HCT-116, 144 h) and 183 nM with HCT116 MTAP null cells (HCT116-MTAP null, 144 h).

With `C[C@H]1COC[C@@H](c2ccc(OC(F)(F)F)cn2)N1C(=O)c1cc2c3c(c(N)nc2cc1F)COC3` (racemic) [Example 378, (4-amino-7-fluoro-1,3-dihydrofuro[3,4-c]quinolin-8-yl)((3R,5S)-3-methyl-5-(5-(trifluoromethoxy)-2-pyridinyl)-4-morpholinyl)methanone and (4-amino-7-fluoro-1,3-dihydrofuro[3,4-c]quinolin-8-yl)((3S,5R)-3-methyl-5-(5-(trifluoromethoxy)-2-pyridinyl)-4-morpholinyl)methanone], the IC50 in the test with HCT116 WT cells (Homo sapiens, HCT-116, 144 h) is 190 nM; with HCT116 MTAP null cells (HCT116-MTAP null, 144 h), 15 nM.

Take `Nc1nc2ncc(C(=O)N3CCOCC3c3ccc(C(F)(F)F)cc3)cc2c2c1COC2` (racemic) [Example 483, rac-(4-amino-1,3-dihydrofuro[3,4-c][1,8]naphthyridin-8-yl)(3-(4-(trifluoromethyl)phenyl)morpholino)methanone]: the half-maximal inhibitory concentration (IC50) in the test with HCT116 WT cells (Homo sapiens, HCT-116, 144 h) was more than 10000 nM; in the test with HCT116 MTAP null cells (HCT116-MTAP null, 144 h) it was more than 1000 nM.

On to `Cn1ncc2c(N)nc3cc(F)c(C(=O)N4CCC(c5ccc(C(F)(F)F)cn5)C4)cc3c21` (racemic) [Example 541, (4-amino-7-fluoro-1-methyl-1H-pyrazolo[4,3-c]quinolin-8-yl)((3R)-3-(5-(trifluoromethyl)-2-pyridinyl)-1-pyrrolidinyl)methanone and (4-amino-7-fluoro-1-methyl-1H-pyrazolo[4,3-c]quinolin-8-yl)((3S)-3-(5-(trifluoromethyl)-2-pyridinyl)-1-pyrrolidinyl)methanone], for which the half-maximal inhibitory concentration (IC50) was determined as 5330 nM in the test with HCT116 WT cells (Homo sapiens, HCT-116, 144 h) and 56 nM with HCT116 MTAP null cells (HCT116-MTAP null, 144 h).

In the case of `N#Cc1ccc([C@H]2COCCN2C(=O)c2ccc3nc(N)c4c(c3c2)COC4)nc1` (single isomer, unassigned) [Example 577], the IC50 in the test with HCT116 WT cells (Homo sapiens, HCT-116, 144 h) is more than 10000 nM; in the test on HCT116 MTAP null cells (HCT116-MTAP null, 144 h) it was 873 nM.

With `CCOc1ccc(C2COCCN2C(=O)c2cc3c4c(c(N)nc3cc2F)COC4)nn1` (racemic) [Example 392, (4-amino-7-fluoro-1,3-dihydrofuro[3,4-c]quinolin-8-yl)((3R)-3-(6-ethoxy-3-pyridazinyl)-4-morpholinyl)methanone and (4-amino-7-fluoro-1,3-dihydrofuro[3,4-c]quinolin-8-yl)((3S)-3-(6-ethoxy-3-pyridazinyl)-4-morpholinyl)methanone], the IC50 with HCT116 WT cells (Homo sapiens, HCT-116, 144 h) was more than 10000 nM; with HCT116 MTAP null cells (HCT116-MTAP null, 144 h) it was 216 nM.

Consider `Cc1ccc([C@H]2COCCN2C(=O)c2cc3c4c(c(N)nc3cn2)COC4)cn1` (single isomer, unassigned) [Example 607], for which the IC50 in the test on HCT116 WT cells (Homo sapiens, HCT-116, 144 h) is more than 10000 nM; with HCT116 MTAP null cells (HCT116-MTAP null, 144 h), more than 1000 nM.

On to `Nc1nc2ccc(C(=O)N3CCOC[C@@H]3c3ccc(C(F)(F)F)cc3)cc2c2cncnc12` [Example 502, (5-aminopyrimido[4,5-c]quinolin-9-yl)((3S)-3-(4-(trifluoromethyl)phenyl)-4-morpholinyl)methanone], for which the IC50 in the test on HCT116 WT cells (Homo sapiens, HCT-116, 144 h) was found to be 11600 nM; with HCT116 MTAP null cells (HCT116-MTAP null, 144 h), 819 nM.
